Measurements reported in US12570656B2, “Purine compounds for treating disorders” (MARVEL BIOTECHNOLOGY, priority 2020, dated 2026).
Where “and” joins values, the source holds several entries; their conditions need not be identical. Equal values may be shown once. Read-outs that look alike come from different tables or passages of the source.

Columns and labels:
[1] = Brain pharmacokinetics and brain/plasma ratio in male CD-1 mice (1 mg/kg i.v.); type: in vivo; settings: for Brain concentration / Brain/plasma concentration ratio / Kp at 5 min / Kp at 0.25 h / Kp at 0.5 h / Kp at 8 h / concentration at 5 min / concentration at 0.25 h / concentration at 0.5 h / concentration at 1 h / concentration at 2 h / concentration at 4 h / concentration at 6 h / concentration at 8 h / Kp at 1 h / Kp at 2 h / Kp at 4 h / Kp at 6 h: 1 mg/kg bolus i.v.; for Brain/plasma concentration ratio: listed as 1a; for Kp at 5 min / Kp at 0.25 h / Kp at 0.5 h / Kp at 8 h: brain and plasma; for concentration at 5 min / concentration at 0.25 h / concentration at 0.5 h / concentration at 1 h / concentration at 2 h / concentration at 4 h / concentration at 6 h / concentration at 8 h: intravenous
Procedure: (§1) Male CD-1 mice were given either bolus 1 mg/kg i.v. or 3 mg/kg p.o. of the indicated compounds and plasma or brain concentrations were measured.
(§2) Where: • C0 concentration extrapolated to time zero following an i.v. dose • tmax time at which maximum concentration is observed • Cmax maximum observed concentration • Apparent t1/2 apparent terminal half-life • AUC0-tlast area under the concentration vs time curve from time 0 to the time of the last measurable concentration • AUC0-inf area under the concentration vs time curve from time 0 to infinity • CL systemic clearance • MRT0-inf mean residence time from time zero to infinity • Vss steady-state volume of distribution • F oral bioavailability=(Dose^iv*AUC^po)/(Dose^po*AUC^iv)*100

[2] = Plasma pharmacokinetics in male CD-1 mice (1 mg/kg i.v. or 3 mg/kg p.o.); settings: CD-1, mouse, in vivo
Procedure: as §1, §2

[3] = biological target: ADORA2A (Homo sapiens, UniProt P29274); experiment: GPCR screening, calcium flux (calcium mobilization), antagonist format; type: cell-based
Procedure: To ascertain whether the compounds are suitable A2aR antagonists, the compounds of formulae I, II, III, and IV were subjected to GPCR screening using A2aR as the target. The screening was done using the GPCR Screening and Profiling Services by Eurofins DiscoverX Corporation.
The compounds of formulae I, II, III, and IV were screened for GPCR activity using A2aR as the target.
Cell lines were expanded from freezer stocks according to standard procedures. Cells were seeded in a total volume of 20 μL into black-walled, clear-bottom, Poly-D-lysine coated 384-well microplates and incubated at 37° C. for the appropriate time prior to testing.
Assays were performed in 1× Dye Loading Buffer consisting of 1× Dye, 1× Additive A and 2.5 mM Probenecid in HBSS/20 mM Hepes. Probenicid was prepared fresh. Cells were loaded with dye prior to testing. Media was aspirated from cells and replaced with 20 μL Dye Loading Buffer. Cells were incubated for 30-60 minutes at 37° C.
For antagonist determination, cells were pre-incubated with sample followed by agonist challenge at the EC80 concentration. Intermediate dilution of sample stocks was performed to generate 3× sample in assay buffer. After dye loading, cells were removed from the incubator and 10 μL 3× sample was added. Cells were incubated for 30 minutes at room temperature in the dark to equilibrate plate temperature. Vehicle concentration was 1%. Compound antagonist activity was measured on a FLIPR Tetra (MDS). Calcium mobilization was monitored for 2 minutes and 10 μL EC80 agonist in HBSS/20 mM Hepes was added to the cells 5 seconds into the assay.
For antagonist and negative allosteric modulation mode assays, percentage inhibition is calculated using the following formula: % Inhibition=100%×(1−(mean RFU of test sample−mean RFU of vehicle control)/(mean RFU of EC80 control−mean RFU of vehicle control)).
When the calcium was released, the fluorescence of the dye was increased and the increase was measured in real-time.
FIGS. 1 to 6 show percent reacted (Y) versus concentration in μM (X). Compounds were tested in antagonist mode with the requested GPCR Biosensor Assay. For the antagonist assay, data was normalized to the maximal and minimal response observed in the presence of EC80 ligand and vehicle.

[4] = male, CD-1, mouse, iv, brain, i.v. 1 mg/kg

ADORA2A, sequence (P29274 whole entry): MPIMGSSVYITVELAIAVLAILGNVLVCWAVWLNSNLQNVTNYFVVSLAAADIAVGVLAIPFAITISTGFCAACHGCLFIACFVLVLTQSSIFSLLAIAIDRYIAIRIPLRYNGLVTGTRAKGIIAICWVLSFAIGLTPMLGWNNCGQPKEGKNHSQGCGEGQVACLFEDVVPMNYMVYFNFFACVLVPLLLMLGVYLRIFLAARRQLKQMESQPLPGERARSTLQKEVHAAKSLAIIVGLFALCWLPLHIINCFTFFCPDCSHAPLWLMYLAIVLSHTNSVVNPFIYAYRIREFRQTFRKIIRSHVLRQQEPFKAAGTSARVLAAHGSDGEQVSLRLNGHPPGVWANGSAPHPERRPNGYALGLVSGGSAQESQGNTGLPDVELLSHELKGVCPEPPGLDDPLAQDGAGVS

CCn1c(=O)c2c(nc(/C=C/c3ccc(OC(F)F)c(OC(F)F)c3)n2C)n(CC)c1=O [Formula I, 8-[(E)-2-[3,4-bis(difluoromethoxy)phenyl]vinyl]-1,3-diethyl-7-methyl-purine-2,6-dione;hydrofluoride]
Brain concentration ([1]; 5 min, individual animals 1-3): 851 ng/g and 682 ng/g
Brain/plasma concentration ratio ([1]; 5 min, individual animals 1-3): 0.867 and 0.751
Brain concentration ([1]; 0.25 h, individual animals 1-3): 426 ng/g and 665 ng/g
Brain/plasma concentration ratio ([1]; 0.25 h, individual animals 1-3): 0.789 and 0.795
Brain concentration ([1]; 0.5 h, individual animals 1-3): 282 ng/g and 381 ng/g
Brain/plasma concentration ratio ([1]; 0.5 h, individual animals 1-3): 0.535 and 0.779
Brain concentration ([1]; 1 h, individual animals 1-3): 318 ng/g and 175 ng/g
Brain/plasma concentration ratio ([1]; 1 h, individual animals 1-3): 0.763 and 0.550
Brain concentration ([1]; 2 h, individual animals 1-3): 195 ng/g and 185 ng/g
Brain/plasma concentration ratio ([1]; 2 h, individual animals 1-3): 0.739 and 0.661
Brain concentration ([1]; 4 h, individual animals 1-3): 158 ng/g and 198 ng/g
Brain/plasma concentration ratio ([1]; 4 h, individual animals 1-3): 0.745 and 0.783
Brain concentration ([1]; 6 h, individual animals 1-3): 138 ng/g and 122 ng/g
Brain/plasma concentration ratio ([1]; 6 h, individual animals 1-3): 0.683 and 0.758
Brain concentration ([1]; 8 h, individual animals 1-3): 118 ng/g and 114 ng/g
Brain/plasma concentration ratio ([1]; 8 h, individual animals 1-3): 0.771 and 0.809
AUC0-tlast ([1]; brain, i.v. 1 mg/kg): 1,447 h*ng/g
AUC(0-inf) ([1]; brain, i.v. 1 mg/kg): 2807^a h*ng/g
Kp at 5 min ([1]; male, CD-1, mouse, iv, 1 mg/kg, 5 min, individual animals 1-3, read-out: Brain/plasma concentration ratio): 0.757
Kp at 5 min ([1]; male, CD-1, mouse, iv, 1 mg/kg, 5 min, read-out: Brain/plasma concentration ratio, Mean): 0.792
Kp at 0.25 h ([1]; male, CD-1, mouse, iv, 1 mg/kg, 0.25 h, individual animals 1-3, read-out: Brain/plasma concentration ratio): 0.635
Kp at 0.25 h ([1]; male, CD-1, mouse, iv, 1 mg/kg, 0.25 h, read-out: Brain/plasma concentration ratio, Mean): 0.74
Kp at 0.5 h ([1]; male, CD-1, mouse, iv, 1 mg/kg, 0.5 h, individual animals 1-3, read-out: Brain/plasma concentration ratio): 0.731
Kp at 0.5 h ([1]; male, CD-1, mouse, iv, 1 mg/kg, 0.5 h, read-out: Brain/plasma concentration ratio, Mean): 0.682
Kp at 8 h ([1]; male, CD-1, mouse, iv, 1 mg/kg, 8 h, individual animals 1-3, read-out: Brain/plasma concentration ratio): 0.902
Kp at 8 h ([1]; male, CD-1, mouse, iv, 1 mg/kg, 8 h, read-out: Brain/plasma concentration ratio, Mean): 0.827
concentration at 5 min ([1]; male, CD-1, mouse, brain, 1 mg/kg, 5 min, individual animals 1-3, read-out: Brain concentration): 818 ng/g
concentration at 5 min ([1]; male, CD-1, mouse, brain, 1 mg/kg, 5 min, read-out: Brain concentration, Mean): 784 ng/g
concentration at 0.25 h ([1]; male, CD-1, mouse, brain, 1 mg/kg, 0.25 h, individual animals 1-3, read-out: Brain concentration): 373 ng/g
concentration at 0.25 h ([1]; male, CD-1, mouse, brain, 1 mg/kg, 0.25 h, read-out: Brain concentration, Mean): 488 ng/g
concentration at 0.5 h ([1]; male, CD-1, mouse, brain, 1 mg/kg, 0.5 h, individual animals 1-3, read-out: Brain concentration): 377 ng/g
concentration at 0.5 h ([1]; male, CD-1, mouse, brain, 1 mg/kg, 0.5 h, read-out: Brain concentration, Mean): 347 ng/g
concentration at 1 h ([1]; male, CD-1, mouse, brain, 1 mg/kg, 1 h, individual animals 1-3, read-out: Brain concentration): 269 ng/g
concentration at 1 h ([1]; male, CD-1, mouse, brain, 1 mg/kg, 1 h, read-out: Brain concentration, Mean): 254 ng/g
concentration at 2 h ([1]; male, CD-1, mouse, brain, 1 mg/kg, 2 h, individual animals 1-3, read-out: Brain concentration): 159 ng/g
concentration at 2 h ([1]; male, CD-1, mouse, brain, 1 mg/kg, 2 h, read-out: Brain concentration, Mean): 180 ng/g
concentration at 4 h ([1]; male, CD-1, mouse, brain, 1 mg/kg, 4 h, individual animals 1-3, read-out: Brain concentration): 120 ng/g
concentration at 4 h ([1]; male, CD-1, mouse, brain, 1 mg/kg, 4 h, read-out: Brain concentration, Mean): 159 ng/g
concentration at 6 h ([1]; male, CD-1, mouse, brain, 1 mg/kg, 6 h, individual animals 1-3, read-out: Brain concentration): 91.2 ng/g
concentration at 6 h ([1]; male, CD-1, mouse, brain, 1 mg/kg, 6 h, read-out: Brain concentration, Mean): 117 ng/g
concentration at 8 h ([1]; male, CD-1, mouse, brain, 1 mg/kg, 8 h, individual animals 1-3, read-out: Brain concentration): 110 ng/g
concentration at 8 h ([1]; male, CD-1, mouse, brain, 1 mg/kg, 8 h, read-out: Brain concentration, Mean): 114 ng/g
Kp at 1 h ([1]; male, CD-1, mouse, brain/plasma, iv, 1 mg/kg, 1 h, individual animals 1-3, read-out: Brain/plasma concentration ratio): 0.714
Kp at 1 h ([1]; male, CD-1, mouse, brain/plasma, iv, 1 mg/kg, 1 h, read-out: Brain/plasma concentration ratio, Mean): 0.675
Kp at 2 h ([1]; male, CD-1, mouse, brain/plasma, iv, 1 mg/kg, 2 h, individual animals 1-3, read-out: Brain/plasma concentration ratio): 0.572
Kp at 2 h ([1]; male, CD-1, mouse, brain/plasma, iv, 1 mg/kg, 2 h, read-out: Brain/plasma concentration ratio, Mean): 0.657
Kp at 4 h ([1]; male, CD-1, mouse, brain/plasma, iv, 1 mg/kg, 4 h, individual animals 1-3, read-out: Brain/plasma concentration ratio): 0.8
Kp at 4 h ([1]; male, CD-1, mouse, brain/plasma, iv, 1 mg/kg, 4 h, read-out: Brain/plasma concentration ratio, Mean): 0.776
Kp at 6 h ([1]; male, CD-1, mouse, brain/plasma, iv, 1 mg/kg, 6 h, individual animals 1-3, read-out: Brain/plasma concentration ratio): 0.86
Kp at 6 h ([1]; male, CD-1, mouse, brain/plasma, iv, 1 mg/kg, 6 h, read-out: Brain/plasma concentration ratio, Mean): 0.767
Kp ([1]; male, CD-1, mouse, brain/plasma, iv, 1 mg/kg, i.v. 1 mg/kg, read-out: Brain/plasma AUC0-tlast ratio): 0.71
Cmax [1, 4]: 784 ng/g
Tmax [1, 4]: 5 min
half-life ([1]; male, CD-1, mouse, iv, brain, i.v. 1 mg/kg, read-out: Apparent t1/2 (converted)): 496 min
MRT inf ([1]; male, CD-1, mouse, iv, brain, i.v. 1 mg/kg, read-out: MRT0-inf): 11.2 h
bioavailability [2]: 76%
AUC(0-inf) ([2]; iv, 1 mg/kg): 3240 ng·h/mL
AUC(0-t) ([2]; iv, 1 mg/kg): 2040 ng·h/mL
C0 ([2]; iv, 1 mg/kg): 1220 ng/mL
Cmax ([2]; iv, 1 mg/kg): 990 ng/mL
MRT inf ([2]; iv, 1 mg/kg): 8.02 h
Tmax ([2]; iv, 1 mg/kg): 0.0833 h
Vd ([2]; iv, 1 mg/kg): 2.47 L/kg
clearance ([2]; iv, 1 mg/kg): 5.13 mL/min/kg
half-life ([2]; iv, 1 mg/kg): 360 min
AUC(0-inf) ([2]; po, 3 mg/kg): 5090 ng·h/mL
AUC(0-t) ([2]; po, 3 mg/kg): 4650 ng·h/mL
Cmax ([2]; po, 3 mg/kg): 424 ng/mL
MRT inf ([2]; po, 3 mg/kg): 11.1 h
Tmax ([2]; po, 3 mg/kg): 4 h
half-life ([2]; po, 3 mg/kg): 391 min
Curve Bottom ([3]; Antagonist format): 1.23
Curve Top ([3]; Antagonist format): 99
Hill ([3]; Antagonist format): 1.4103
IC50 ([3]; Antagonist format, EC80 0.021 μM NECA, read-out: RC50 (IC50)): 88.5 nM
Emax ([3]; Antagonist format, read-out: Max Response): 98.1%
IC50 ([3]; text to FIGS. 1-4, 6, antagonist mode, read-out: half maximal inhibitory concentration (IC50)): 88.5 nM and 75.5 nM
